Assay results: PMC8844826 (iScience, 2022)
Peptide text beside a SMILES is read from it.

Key:
full length PSD-95 [1] = biological target: T1, full length PSD-95 (Homo sapiens, UniProt P78352); experiment: competitive fluorescence polarization (FP) binding to full length PSD-95, tracer AB-143; settings: Ki,app
T1 construct: FL-PSD-95 (32M3C-PSD-95 FL 1-724); made in house; host or cells: E. coli BL21-DE3-pLysS

ePSD = experiment: confocal microscopy of ePSD LLPS droplets; assay type: biochemical
Procedure: (§1) Confocal microscopy was done using a Zeiss LSM780 using a 63x NA 1.4 plan apochromat oil objective using Argon 488 nm 25 mW, 543 nm HeNe 1.2 mW and 633 nm HeNe 5mW lasers using a detection wavelength of 490-538 nm for the 488 channel, 556-627 nm for the 543 channel, 636-758 for the 633 channel. Images were acquired using averaging of four line scans and 12-bit. The LLPS droplets were prepared in the desired concentration in PBS-TCEP at desired pH, mostly pH 7.4 unless stated otherwise, and added to an untreated lab tec (155411PK, Nunc, ThermoFischer) and imaged after being allowed to settle for 15 min at 25°C. For samples containing fluorescent protein or peptide the content of fluorescent protein or peptide was kept at 1-10% of indicated total protein or peptide concentration.

full length PSD-95 [2] = biological target: T1, full length PSD-95; experiment: SDS-PAGE sedimentation assay with PSD-95; assay type: biochemical; settings: SDS-PAGE sedimentation and quantification; n = 3
Procedure: (§2) Proteins were all mixed in the desired concentration in PBS-TCEP and equilibrated for 10 min before centrifugation at 20,000 g for 15 min at 25°C using a temperature-controlled table top centrifuge. Following centrifugation, the supernatant was collected and the pellet was re-suspended in an equal amount of PBS-TCEP, usually 50 μL. To ensure proper suspension of LLPS samples were vortexed before addition of SDS buffer boiling at 95°C for 5 min. Supernatant and pellet fractions were run on any kD Mini-PROTEAN TGX Precast Protein Gels (10 or 15 wells, BioRad 4569036 or 4569033). Gels were imaged using a Li-COR Odyssey gel scanner and band intensities were analyzed using ImageJ. Significance was evaluated using one-way ANOVA with Dunnett post-test, one-way ANOVA with Tukey post-test or a two-way ANOVA with Dunnett post-test.

PSD-95 = experiment: confocal microscopy of LLPS droplets of fluorescently labeled PSD-95; assay type: biochemical, human; settings: peptide 36 μM, Alexa 633-PSD-95 30 nM labeled/3 μM unlabeled, validated by SDS-PAGE sedimentation
Procedure: as §1

[3] = test system: ePSD (PSD-95, Homer3, Shank3, GKAP, SynGAP); experiment: SDS-PAGE sedimentation assay with ePSD; assay type: biochemical; settings: n = 3; for promotion of LLPS of ePSD: SDS-PAGE sedimentation and quantification, ePSD incubated with indicated peptides; for LLPS induction in the PSD-95 containing ePSD: peptide 10 μM and 100 μM
Procedure: as §2

15N-PDZ1-2 of PSD-95 = experiment: 1H-15N-HSQC NMR chemical shift perturbation; assay type: binding; settings: 512 μM StgA222-R236/128 μM 15N-PDZ1-2; 50 mM Tris pH 8, 200 mM NaCl, 1 mM TCEP, 25°C
Procedure: All NMR spectra were recorded on 600 MHz or 750 MHz Bruker Avance III HD spectrometers equipped with QCI or TCI cryo-probes at 25°C in 50 mM Tris pH 8, 200 mM NaCl, 1 mM TCEP, 10% D2O and 250 μM DSS. Spectra were processed with NMRPipe ([Delaglio et al., 1995]) or qMDD ([Kazimierczuk and Orekhov, 2011]) if non-uniform sampling was used for the acquisition and analyzed using CCPNMR analysis ([Skinner et al., 2016]). Amide nitrogen and proton chemical shift assignments were kindly shared by Prof. […] Combined chemical shift perturbations were calculated between the unbound and the bound states using.

[4] = SDS-PAGE sedimentation, ePSD 3 μM

T1 sequence (P78352 whole entry): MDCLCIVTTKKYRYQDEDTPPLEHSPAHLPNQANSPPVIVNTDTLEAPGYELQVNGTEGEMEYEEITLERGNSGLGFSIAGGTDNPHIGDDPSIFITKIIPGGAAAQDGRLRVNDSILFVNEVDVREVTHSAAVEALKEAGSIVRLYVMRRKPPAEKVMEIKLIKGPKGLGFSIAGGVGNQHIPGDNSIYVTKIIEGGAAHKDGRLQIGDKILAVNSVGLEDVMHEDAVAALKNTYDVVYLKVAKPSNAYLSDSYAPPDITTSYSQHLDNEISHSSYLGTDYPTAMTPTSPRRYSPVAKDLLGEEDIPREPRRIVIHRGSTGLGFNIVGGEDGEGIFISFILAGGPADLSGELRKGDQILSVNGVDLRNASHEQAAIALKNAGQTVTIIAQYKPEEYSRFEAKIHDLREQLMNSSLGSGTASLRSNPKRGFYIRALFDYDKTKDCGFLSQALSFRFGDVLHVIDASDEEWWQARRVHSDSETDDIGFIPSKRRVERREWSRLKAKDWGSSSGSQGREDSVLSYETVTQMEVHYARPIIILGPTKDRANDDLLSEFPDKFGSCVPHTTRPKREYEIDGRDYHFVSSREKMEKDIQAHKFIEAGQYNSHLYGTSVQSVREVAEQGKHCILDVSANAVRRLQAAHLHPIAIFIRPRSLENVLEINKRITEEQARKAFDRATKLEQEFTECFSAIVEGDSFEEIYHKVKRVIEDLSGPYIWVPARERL

With CC[C@H](C)[C@H](NC(=O)[C@H](CO)NC(=O)[C@H](CO)NC(=O)[C@H](CC(C)C)NC(=O)[C@H](CCCCN)NC(=O)[C@H](CCCN=C(N)N)NC(=O)[C@H](CCCN=C(N)N)NC(=O)[C@H](CCCN=C(N)N)NC(=O)[C@H](CCC(N)=O)NC(=O)[C@H](CCCN=C(N)N)NC(=O)[C@H](CCCN=C(N)N)NC(=O)[C@H](CCCCN)NC(=O)[C@H](CCCCN)NC(=O)[C@H](CCCN=C(N)N)NC(=O)CNC(=O)[C@@H](N)Cc1ccc(O)cc1)C(=O)N[C@@H](CCC(=O)O)C(=O)N[C@@H](CO)C(=O)N[C@@H](CC(=O)O)C(=O)N[C@H](C(=O)O)C(C)C [NA-1] (H-YGRKKRRQRRRKLSSIESDV-OH) as the compound, how does the Ki (full length PSD-95 [1]; pH 6.4, competitive FP, pH 6.4) read?
Its Ki is 7.2 µM.

What about the Ki (full length PSD-95 [1]; pH 7.4, competitive FP, pH 7.4) of the same compound?
Its Ki is 4.5 µM.

What about the Ki (full length PSD-95 [1]; pH 8.4, competitive FP, pH 8.4) of the same compound?
The Ki was 2.6 µM.

What about the Ki (full length PSD-95 [1]; pH 9.4, competitive FP, pH 9.4) of the same compound?
The Ki was 4.1 µM.

With CC[C@H](C)[C@H](NC(=O)[C@H](CO)NC(=O)[C@H](CO)NC(=O)[C@H](CC(C)C)NC(=O)[C@H](CCCCN)NC(=O)[C@H](CCCNC(=N)N)NC(=O)[C@H](CCCNC(=N)N)NC(=O)[C@H](CCCNC(=N)N)NC(=O)[C@H](CCC(N)=O)NC(=O)[C@H](CCCNC(=N)N)NC(=O)[C@H](CCCNC(=N)N)NC(=O)[C@H](CCCCN)NC(=O)[C@H](CCCCN)NC(=O)[C@H](CCCNC(=N)N)NC(=O)CNC(=O)[C@@H](N)Cc1ccc(O)cc1)C(=O)N[C@@H](CCC(=O)O)C(=O)N[C@@H](CO)C(=O)N[C@@H](CC(=O)O)C(=O)N[C@H](C(=O)O)C(C)C [NA-1] (H-YGRKKRRQRRRKLSSIESDV-OH; N-terminus and C-terminus assumed) as the compound, how does the “LLPS once complexed with the ePSD” value (ePSD) read?
Its value is “induces LLPS”.

And the “LLPS induction for PSD-95 alone by known inhibitors” value (full length PSD-95 [2])?
The value was “able”.

What about the “pH below which LLPS of PSD-95 is induced” value (PSD-95) of the same compound?
The value was “below 7.4 pH”.

And the “promotion of LLPS of ePSD” value [3]?
Its value is “able to promote LLPS”.

And the “LLPS induction in the PSD-95 containing ePSD” value [3, 4]?
Its value is “could induce LLPS”.

With YGRKKRRQRRR [TAT11] as the compound, how does the “chemical shift perturbations in 1H-15N-HSQC” value (15N-PDZ1-2 of PSD-95) read?
The value was “did not result in any chemical shift perturbations”.

What about the “promotion of LLPS of ePSD” value [3] of the same compound?
The value was “able to promote LLPS”.

What about the “LLPS induction of the ePSD” value ([3]; SDS-PAGE sedimentation, peptide 10 μM, ePSD 3 μM) of the same compound?
Its value is “induced LLPS”.

How did the “effect on ePSD LLPS formation” value ([3]; SDS-PAGE sedimentation, ePSD 3 μM, compared with AVLX-144) turn out when “YGRKKRRQRRR-NPEG4-di-IETAA [AVLX-144-AA]” was run?
The value was “largely compromised the ability to drive LLPS”.

How did the “pH below which LLPS of PSD-95 is induced” value (PSD-95) turn out when YGRKKRRQRRR-NPEG4-di-IETDV [AVLX-144] was run?
Its value is “below 6.4 pH”.

What about the “LLPS induction in the PSD-95 containing ePSD” value [3, 4] of the same compound?
Its value is “induced LLPS to a minor extent”.
